Assays:
HIV-1 [1] = test: microbe, parasite or virus in culture; format: cell-based; settings: Human immunodeficiency virus 1, NL43, M-HeLa, 72 h, read-out: (%) Inhibition rate of p24 expression
Protocol: (§1) Anti-HIV-1 activity of synthesized compounds was evaluated in single cycle replication assay which was evaluated in our laboratory and reported previously ([32]-[35]). In this assay, the single-cycle replicable HIV NL4-3 virions (200 ng p24) were inoculated concurrently with compounds in different concentrations to the Hela cells. The inhibition rate (%) of p24 expression was measured by capture ELISA (Biomerieux, France) 72 hours after inoculation. Percentage inhibition of p24 expression in treated culture was calculated as inhibition rate of p24 (%). The XTT (sodium3-[1(phenylaminocarbonyl)-3,4-tetrazolium]-bis(4-methoxy-6-nitro)benzene sulfonic acid) proliferation assay was conducted to evaluate the cellular toxicity according to kit instructions ([36], [37]). Cytotoxicity test was performed exactly after the p24 assay.
(§2) Compounds 11a-h were assayed for anti-HIV-1 activity in single cycle replication method which reflects only one round of infection. Anti-HIV activity of compounds was measured as inhibition rate (%) of p24 expression in Hela cells cultures. Azidothymidine (AZT) was the positive control in the test. The cytotoxic properties were measured in the same cells by XTT proliferation assay and reported as percentage of cell viability.

in vitro = settings: human
Protocol: as §1, §2

HIV-1 [2] = tested on: HIV-1; parameters: method as in earlier work; settings: read-out: EC50 (anti-HIV-1 activity); cited from earlier work
[3] = parameters: method as in earlier work; settings: read-out: CC50 (cytotoxicity); cited from earlier work

SMILES	inhibition at 100 µM (HIV-1 [1])	viability at 72 h, 100 µM (in vitro)	EC50 (HIV-1 [2])	CC50 [3]	melting point
Cc1cn([C@H]2C[C@H](N=[N+]=[N-])[C@@H](CO)O2)c(=O)[nH]c1=O [AZT, Azidothymidine, reference compound]	58%	92%			
O=c1c(-c2nnc(SCc3ccccc3F)o2)c[nH]c2c(-c3ccccc3)cccc12 [Compound 3]			50 µM	> 100 µM	
CSc1nnc(-c2ccc(N=Nc3c(O)c4ccccc4oc3=O)cc2)o1 [Compound 11a, 4-Hydroxy-3-((4-(5-(methylthio)-1,3,4-oxadiazol-2-yl)phenyl)diazenyl)-2H-chromen-2-one]	79%	51%			211.6 to 212.1 °C
CCSc1nnc(-c2ccc(N=Nc3c(O)c4ccccc4oc3=O)cc2)o1 [Compound 11b, 3-((4-(5-(Ethylthio)-1,3,4-oxadiazol-2-yl)phenyl)diazenyl)-4-hydroxy-2H-chromen-2-one]	5%	100%			290 to 291 °C (dec.)
CCCSc1nnc(-c2ccc(N=Nc3c(O)c4ccccc4oc3=O)cc2)o1 [Compound 11c, 4-Hydroxy-3-((4-(5-(propylthio)-1,3,4-oxadiazol-2-yl)phenyl)diazenyl)-2H-chromen-2-one]	32%	93%			205.5 to 206.8 °C
O=c1oc2ccccc2c(O)c1N=Nc1ccc(-c2nnc(SCc3ccccc3)o2)cc1 [Compound 11d, 3-((4-(5-(Benzylthio)-1,3,4-oxadiazol-2-yl)phenyl)diazenyl)-4-hydroxy-2H-chromen-2-one]	6%	94%			243.1 to 243.8 °C
O=c1oc2ccccc2c(O)c1N=Nc1ccc(-c2nnc(SCc3ccccc3Cl)o2)cc1 [Compound 11e, 3-((4-(5-(2-Chlorobenzylthio)-1,3,4-oxadiazol-2-yl)phenyl)diazenyl)-4-hydroxy-2H-chromen-2-one]	33%	75%			236.8 to 237.5 °C
O=c1oc2ccccc2c(O)c1N=Nc1ccc(-c2nnc(SCc3ccc(Cl)cc3)o2)cc1 [Compound 11f, 3-((4-(5-(4-Chlorobenzylthio)-1,3,4-oxadiazol-2-yl)phenyl)diazenyl)-4-hydroxy-2H-chromen-2-one]	52%	100%			260.8 to 263.8 °C
O=c1oc2ccccc2c(O)c1N=Nc1ccc(-c2nnc(SCc3ccccc3F)o2)cc1 [Compound 11g, 3-((4-(5-(2-Fluorobenzylthio)-1,3,4-oxadiazol-2-yl)phenyl)diazenyl)-4-hydroxy-2H-chromen-2-one]	22%	74%			240.1 to 242.2 °C
O=c1oc2ccccc2c(O)c1N=Nc1ccc(-c2nnc(SCc3ccc(F)cc3)o2)cc1 [Compound 11h, 3-((4-(5-(4-Fluorobenzylthio)-1,3,4-oxadiazol-2-yl)phenyl)diazenyl)-4-hydroxy-2H-chromen-2-one]	25%	100%			246.6 to 251.6 °C
